pIC50: −log10 of the molar value. Values joined by “and” are separate entries in the source; they are usually repeats but may differ in a detail not shown here. Equal values may be shown once.

We go through five molecules from PubChem BioAssay AID1919003 (Molecular Pharmacology Branch, DTP, NCI, 2023).

In this assay the test system is 786-0 complex spheroids with HUVEC/MSC, growth % test/control. Nature of the assay: Anticancer human tumor 786-0 cell line growth inhibition [AhR].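 As to all read-outs here: compound exposure lasted seven days before the read-out.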 The following applies: for viability, T/C: stronger effect = lower value. An excerpt: Multicellular complex tumor spheroid response to aryl hydrocarbon receptor antagonists in combination with a variety of drugs and investigational agents in selected tumor cell lines
The current study was undertaken to assess response to aryl hydrocarbon receptor antagonists in combination with standard-of-care drugs and investigational agents in solid tumor complex spheroid models. Complex spheroids include a stromal component modeled by human endothelial cells (HUVEC) and fibroblasts modeled by human mesenchymal stem cells (MSCs). The concentration ranges selected for each drug and investigational agent were based upon clinically achievable concentrations if the clinical Cmax of the agent was known.
Compounds. The drugs and investigational agents: BAY 2416964 (NSC825713), GNF351 (NSC835774), CH-223191 (NSC835775), CPI-455 (NSC825282), aza-TdCyd (NSC777586), decitabine (NSC127716), belinostat (NSC758774), entinostat (NSC756642), pevonedistat (NSC761192), tazemetostat (NSC777109), talazoparib (NSC765396), olaparib (NSC753686), selinexor (NSC780203), nedisertib (M3814, NSC802822), bortezomib (NSC756655), venetoclax (NSC766270), doxorubicin (NSC123127), elimusertib (BAY189344, NSC800525), ceralasertib (AZD6738, NSC777638), TAK-243 (NSC785004), alisertib (NSC759677), etoposide (NSC141540), topotecan (NSC609699), eribulin (NSC707389), gemcitabine (NSC613327), carboplatin (NSC241240), cisplatin (NSC119875), and SN-38 (NSC673596) were obtained from the National Cancer Institute (NCI) Developmental Therapeutics Program Chemical Repository (32). The FDA-approved anticancer drug set is available from the Developmental Therapeutics Program at https://dtp.cancer.gov/organization/dscb/obtaining/available plates.htm. […] The stock solutions were prepared in dimethyl sulfoxide (DMSO, Sigma-Aldrich, St. Louis, MO, cat. D2650), except for the platinum compounds which were prepared in saline (Quality Biological, Gaithersburg, MD, cat. 114-055-101), at 800-fold the tested concentration and stored at -70 degrees C prior to their use. All drugs and investigational agents were tested over a range starting from a high concentration at or near the clinical Cmax and decreasing in half-log increments. If the clinical Cmax for an agent had not been determined, the highest concentration tested was 10 microM (Table 1).
Cell Culture. All cells were maintained in an incubator at 37 degrees C and 5% CO2 with 95% humidity. The PDC lines were cultured according to standard operating procedures established by the NCI PDMR (https://pdmr.cancer.gov). Briefly, all PDCs were thawed and cultured in Matrigel-coated flasks prepared with a working solution of 1X Ham's F-12 nutrient mix, without supplementation (Invitrogen, Waltham, MA, cat. 11765054), 100 U/mL penicillin-streptomycin (Invitrogen, cat. 15140122), and 2.5% Matrigel (Corning Inc., Corning, NY, cat. 354248) for the first three passages. All PDCs were cultured in complete DMEM/F-12 media containing advanced DMEM/F-12 (Invitrogen, cat. 12634028), 4.9% defined fetal bovine serum, heat inactivated (HyClone Laboratories Inc., Logan, UT, cat. SH30070.03HI), 389 ng/mL hydrocortisone (Sigma-Aldrich, cat. H4001), 9.7 ng/mL human EGF recombinant protein (Invitrogen, cat. PHG0313), 23.4 microg/mL adenine (Sigma-Aldrich, cat. A2786), 97.3 U/mL penicillin-streptomycin (Invitrogen, cat. 15140122), 1.9 mM L-glutamine (Invitrogen, cat. 25030081), and 9.7 microM Y-27632 dihydrochloride (Tocris Bioscience, Bristol, United Kingdom, cat. 1254). The PDCs were cultured in complete DMEM/F12 media without 10 microM Y-27632 dihydrochloride for at least two passages prior to the screen. The established cell lines NCI-H1341 and […] were cultured in DMEM/F-12, HEPES (Invitrogen, cat. 11330032), 5% defined fetal bovine serum (HyClone Laboratories Inc., cat. SH30070.03), ITS premix universal culture supplement [insulin (5 microg/mL), transferrin (5 microg/mL), and selenious acid (5 ng/mL)] […]

The mark [1] stands for this setting: curve of first compound, second compound 0.1 µM.
The mark [2] stands for this setting: curve of first compound, second compound 0.316 µM.
The mark [3] stands for this setting: curve of first compound, second compound 1 µM.
Setting [4] is: curve of first compound, second compound 3.16 µM.
Where [5] appears, read: curve of first compound, second compound 10 µM.
The mark [6] stands for this setting: second compound 0.1 µM, first compound 0.0316 µM.
Where [7] appears, read: second compound 0.1 µM, first compound 0.1 µM.
Setting [8] is: second compound 0.1 µM, first compound 0.316 µM.
Setting [9] is: second compound 0.1 µM, first compound 1 µM.
The mark [10] stands for this setting: second compound 0.1 µM, first compound 3.16 µM.
Setting [11] is: second compound 0.1 µM, first compound 10 µM.
Setting [12] is: second compound 0.316 µM, first compound 0.0316 µM.
Where [13] appears, read: second compound 0.316 µM, first compound 0.1 µM.
Setting [14] is: second compound 0.316 µM, first compound 0.316 µM.
Where [15] appears, read: second compound 0.316 µM, first compound 1 µM.
The mark [16] stands for this setting: second compound 0.316 µM, first compound 3.16 µM.
Where [17] appears, read: second compound 0.316 µM, first compound 10 µM.
The mark [18] stands for this setting: second compound 1 µM, first compound 0.0316 µM.
Where [19] appears, read: second compound 1 µM, first compound 0.1 µM.
Setting [20] is: second compound 1 µM, first compound 0.316 µM.
Where [21] appears, read: second compound 1 µM, first compound 1 µM.
Where [22] appears, read: second compound 1 µM, first compound 3.16 µM.
Where [23] appears, read: second compound 1 µM, first compound 10 µM.
Where [24] appears, read: second compound 3.16 µM, first compound 0.0316 µM.
Where [25] appears, read: second compound 3.16 µM, first compound 0.1 µM.
Where [26] appears, read: second compound 3.16 µM, first compound 0.316 µM.
Setting [27] is: second compound 3.16 µM, first compound 1 µM.
[28] abbreviates: second compound 3.16 µM, first compound 3.16 µM.
Setting [29] is: second compound 3.16 µM, first compound 10 µM.
Where [30] appears, read: second compound 10 µM, first compound 0.0316 µM.
Where [31] appears, read: second compound 10 µM, first compound 0.1 µM.
The mark [32] stands for this setting: second compound 10 µM, first compound 0.316 µM.
Where [33] appears, read: second compound 10 µM, first compound 1 µM.
Setting [34] is: second compound 10 µM, first compound 3.16 µM.
[35] abbreviates: second compound 10 µM, first compound 10 µM.

With `O=C(c1cc(Cc2n[nH]c(=O)c3ccccc23)ccc1F)N1CCN(C(=O)C2CC2)CC1` + Cc1ccccc1N=Nc1ccc(NC(=O)c2ccnn2C)c(C)c1, the pIC50 was < 5.00 under setting [1]; < 5.00 under setting [2]; < 5.00 under setting [3]; < 5.00 under setting [4]; < 5.00 under setting [5]. Further, the viability, T/C is 101% under setting [6]; 105% under setting [7]; 99.8% under setting [8]; 104% under setting [9]; 97% under setting [10]; 104% under setting [11]. The viability, T/C runs as follows: under setting [12], 97.1%; under setting [13], 101%; under setting [14], 107%; under setting [15], 106%; under setting [16], 107%; under setting [17], 101%. The viability, T/C reads like this: under setting [18], 100%; under setting [19], 101%; under setting [20], 104%; under setting [21], 97.1%; under setting [22], 107%; under setting [23], 99.1%. Moreover, the viability, T/C under setting [24] was 94.6%; the viability, T/C under setting [25] was 97.9%; the viability, T/C under setting [26] is 99.5%; the viability, T/C under setting [27] is 97.3%; the viability, T/C under setting [28] is 106%; the viability, T/C under setting [29] was 94.4%. The viability, T/C under setting [30] is 98.2%; the viability, T/C under setting [31] was 93.8%; the viability, T/C under setting [32] was 102%; the viability, T/C under setting [33] is 94.9%; the viability, T/C under setting [34] was 88.1%; the viability, T/C under setting [35] was 87.5%.
As to `CC1(C)CCC(CN2CCN(c3ccc(C(=O)NS(=O)(=O)c4ccc(NCC5CCOCC5)c([N+](=O)[O-])c4)c(Oc4cnc5[nH]ccc5c4)c3)CC2)=C(c2ccc(Cl)cc2)C1` + Cc1cncc(-c2nc(NCCc3c[nH]c4ccccc34)c3ncn(C(C)C)c3n2)c1, the pIC50 under setting [1] is < 5.00; the pIC50 under setting [2] is < 5.00; the pIC50 under setting [3] is < 5.00; the pIC50 under setting [4] was < 5.00; the pIC50 under setting [5] is > 7.50. Also, the viability, T/C under setting [6] was 107%; the viability, T/C under setting [7] was 123%; the viability, T/C under setting [8] was 117%; the viability, T/C under setting [9] is 109%; the viability, T/C under setting [10] was 113%; the viability, T/C under setting [11] is 93.3%. For the same molecule, the viability, T/C by setting is: under setting [12], 117%; under setting [13], 118%; under setting [14], 119%; under setting [15], 129%; under setting [16], 102%; under setting [17], 93.8%. Besides, the viability, T/C by setting is: under setting [18], 118%; under setting [19], 105%; under setting [20], 109%; under setting [21], 103%; under setting [22], 102%; under setting [23], 97.3%. The viability, T/C was 65.4% under setting [24]; 71.9% under setting [25]; 74.4% under setting [26]; 76.8% under setting [27]; 67.4% under setting [28]; 70.8% under setting [29]. For the same molecule, the viability, T/C reads like this: under setting [30], 5.05%; under setting [31], 3.29%; under setting [32], 6.81%; under setting [33], 6.55%; under setting [34], 6.02%; under setting [35], 23.1%.
Consider `Nc1ncn(C2CC(O)C(CO)S2)c(=O)n1` (stereo not given), for which the viability, T/C by setting is: (compound 0.000949 µM) 109% and 99.9% and 112%; (compound 0.003 µM) 103% and 94.9% and 105%; (compound 0.00949 µM) 99.4% and 94.5% and 98.6%; (compound 0.03 µM) 102% and 107% and 100%; (compound 0.0949 µM) 73.2% and 96.8% and 89%; (compound 0.3 µM) 63.7% and 75.5% and 63.9%. The pIC50 (curve of compound) was < 6.52.
As to `Nc1ccccc1NC(=O)c1ccc(CNC(=O)OCc2cccnc2)cc1` + Cc1cncc(-c2nc(NCCc3c[nH]c4ccccc34)c3ncn(C(C)C)c3n2)c1, the pIC50 was 5.14 under setting [1]; 5.11 under setting [2]; 5.17 under setting [3]; 5.34 under setting [4]; > 7.50 under setting [5]. The viability, T/C reads like this: under setting [6], 119%; under setting [7], 114%; under setting [8], 125%; under setting [9], 115%; under setting [10], 106%; under setting [11], 27.8%. Moreover, the viability, T/C is 118% under setting [12]; 114% under setting [13]; 128% under setting [14]; 126% under setting [15]; 115% under setting [16]; 32% under setting [17]. Further, the viability, T/C under setting [18] was 106%; the viability, T/C under setting [19] was 113%; the viability, T/C under setting [20] is 121%; the viability, T/C under setting [21] was 108%; the viability, T/C under setting [22] is 97%; the viability, T/C under setting [23] is 25.6%. Moreover, the viability, T/C was 68.1% under setting [24]; 71.4% under setting [25]; 65.4% under setting [26]; 60.5% under setting [27]; 69.2% under setting [28]; 15.2% under setting [29]. In addition, the viability, T/C by setting is: under setting [30], 8.31%; under setting [31], 9.06%; under setting [32], 3.52%; under setting [33], 0.75%; under setting [34], 0.39%; under setting [35], 0.77%.
As to `Cc1cncc(-c2nc(NCCc3c[nH]c4ccccc34)c3ncn(C(C)C)c3n2)c1`, the viability, T/C is 114% [middle of 20 runs] (compound 0.1 µM) and 11.6% [middle of 20 runs] (compound 10 µM). Besides, the half-inhibitory concentration (IC50) (compound alone, run of 08/16/2022) is 5.18 µM [middle of 23 runs].
